Source: ChEMBL document CHEMBL1759975, “Development of selective and reversible pyrazoline based MAO-B inhibitors: virtual screening, synthesis and biological evaluation” (Bioorg Med Chem Lett, 2011)

Assays:
[1] = molecular target: T1, Amine oxidase [flavin-containing] A (Rattus norvegicus, UniProt P21396); test: Competitive inhibition of rat liver MAO-A after 60 mins using p-tyramine as substrate by spectrophotometry
T1 sequence (P21396 whole entry): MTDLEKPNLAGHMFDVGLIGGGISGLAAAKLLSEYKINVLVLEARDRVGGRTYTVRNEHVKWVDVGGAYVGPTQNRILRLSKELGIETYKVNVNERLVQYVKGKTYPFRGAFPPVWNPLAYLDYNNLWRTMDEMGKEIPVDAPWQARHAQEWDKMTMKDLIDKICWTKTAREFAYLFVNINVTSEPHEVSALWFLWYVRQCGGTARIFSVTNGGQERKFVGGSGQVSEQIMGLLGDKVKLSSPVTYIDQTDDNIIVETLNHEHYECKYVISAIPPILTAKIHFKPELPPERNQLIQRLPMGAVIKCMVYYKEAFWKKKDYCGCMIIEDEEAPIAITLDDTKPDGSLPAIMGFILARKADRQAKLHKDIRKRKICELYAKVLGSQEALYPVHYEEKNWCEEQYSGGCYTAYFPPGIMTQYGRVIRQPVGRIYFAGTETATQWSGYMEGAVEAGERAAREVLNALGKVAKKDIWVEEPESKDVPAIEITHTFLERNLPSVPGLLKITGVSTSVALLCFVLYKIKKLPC

[2] = molecular target: T2, Amine oxidase [flavin-containing] A (Homo sapiens, UniProt P21397); test: Competitive inhibition of human recombinant MAO-A after 60 mins using p-tyramine as substrate by spectrophotometry
T2 sequence (P21397 whole entry): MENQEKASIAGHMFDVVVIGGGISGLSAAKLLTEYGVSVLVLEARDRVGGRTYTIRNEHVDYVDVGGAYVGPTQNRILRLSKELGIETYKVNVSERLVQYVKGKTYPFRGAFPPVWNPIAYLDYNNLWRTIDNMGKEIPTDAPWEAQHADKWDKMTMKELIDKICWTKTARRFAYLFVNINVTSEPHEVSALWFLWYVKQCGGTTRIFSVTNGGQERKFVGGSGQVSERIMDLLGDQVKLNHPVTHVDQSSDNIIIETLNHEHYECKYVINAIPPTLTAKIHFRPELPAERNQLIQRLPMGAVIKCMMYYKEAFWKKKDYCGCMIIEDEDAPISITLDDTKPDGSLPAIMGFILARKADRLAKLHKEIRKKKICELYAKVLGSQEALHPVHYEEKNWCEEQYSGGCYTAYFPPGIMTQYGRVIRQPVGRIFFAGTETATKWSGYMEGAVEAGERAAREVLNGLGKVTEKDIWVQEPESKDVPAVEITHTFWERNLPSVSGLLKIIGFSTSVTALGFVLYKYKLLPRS

[3] = molecular target: T3, Amine oxidase [flavin-containing] B (Rattus norvegicus, UniProt P19643); test: Competitive inhibition of rat liver MAO-B after 60 mins using p-tyramine as substrate by spectrophotometry
T3 sequence (P19643 whole entry): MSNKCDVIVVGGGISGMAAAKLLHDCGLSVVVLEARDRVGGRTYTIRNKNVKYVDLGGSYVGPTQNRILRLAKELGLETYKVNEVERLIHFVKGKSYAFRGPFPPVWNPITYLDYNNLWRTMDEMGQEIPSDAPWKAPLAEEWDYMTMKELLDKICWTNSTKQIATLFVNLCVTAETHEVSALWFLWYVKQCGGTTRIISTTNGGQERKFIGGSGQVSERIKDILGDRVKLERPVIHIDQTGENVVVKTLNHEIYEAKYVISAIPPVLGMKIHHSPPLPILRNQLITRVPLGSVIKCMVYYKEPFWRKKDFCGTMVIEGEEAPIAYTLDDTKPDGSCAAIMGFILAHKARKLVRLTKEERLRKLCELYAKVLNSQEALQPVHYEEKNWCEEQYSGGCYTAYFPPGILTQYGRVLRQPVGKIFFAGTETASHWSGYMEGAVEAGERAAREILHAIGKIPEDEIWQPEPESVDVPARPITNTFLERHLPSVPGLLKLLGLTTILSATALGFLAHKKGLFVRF

[4] = molecular target: T4, Amine oxidase [flavin-containing] B (Homo sapiens, UniProt P27338)
T4 sequence (P27338 whole entry): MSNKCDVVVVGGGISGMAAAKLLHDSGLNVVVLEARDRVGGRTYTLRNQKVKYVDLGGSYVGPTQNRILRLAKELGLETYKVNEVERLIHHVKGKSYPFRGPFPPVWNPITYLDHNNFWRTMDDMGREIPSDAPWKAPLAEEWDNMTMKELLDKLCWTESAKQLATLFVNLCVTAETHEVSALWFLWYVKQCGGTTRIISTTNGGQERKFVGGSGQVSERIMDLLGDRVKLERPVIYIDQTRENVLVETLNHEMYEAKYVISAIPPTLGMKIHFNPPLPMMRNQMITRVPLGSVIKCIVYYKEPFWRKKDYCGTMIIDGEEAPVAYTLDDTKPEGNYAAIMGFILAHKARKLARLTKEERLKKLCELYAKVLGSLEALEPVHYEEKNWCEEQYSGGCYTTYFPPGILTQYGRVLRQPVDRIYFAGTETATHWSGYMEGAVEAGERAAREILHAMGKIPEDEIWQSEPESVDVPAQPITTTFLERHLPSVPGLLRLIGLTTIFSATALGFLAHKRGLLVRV
Description: Competitive inhibition of human recombinant MAO-B after 60 mins using p-tyramine as substrate by spectrophotometry

| SMILES | Ki [1] | Ki [2] | Ki [3] | Ki [4] |
| --- | --- | --- | --- | --- |
| O=[N+]([O-])c1ccc(C2CC(c3c4ccccc4cc4ccccc34)=NN2)cc1 (stereo not drawn) | 20.1 nM | 17.1 nM | 2.3 nM | 1.15 nM |
| Oc1ccc(C2CC(c3c4ccccc4cc4ccccc34)=NN2)cc1 (stereo not drawn) | 385 nM | 225 nM | 6.75 nM | 7.51 nM |
| Clc1ccc(C2CC(c3c4ccccc4cc4ccccc34)=NN2)cc1 (stereo not drawn) | 320 nM | 281 nM | 2.1 nM | 1.8 nM |
| Cc1ccc(C2CC(c3c4ccccc4cc4ccccc34)=NN2)cc1 (stereo not drawn) | 389 nM | 250 nM | 3.8 nM | 3.56 nM |
| c1ccc(C2CC(c3c4ccccc4cc4ccccc34)=NN2)cc1 (stereo not drawn) | 397 nM | 332 nM | 3.43 nM | 4.21 nM |
| Oc1ccccc1C1CC(c2c3ccccc3cc3ccccc23)=NN1 (stereo not drawn) | 77.6 nM | 69.9 nM | 5.91 nM | 7.35 nM |
| Oc1ccc(C2CC(c3c4ccccc4cc4ccccc34)=NN2)c(O)c1 (stereo not drawn) | 95.6 nM | 81.5 nM | 4.77 nM | 5.54 nM |
| c1ccc(C2CC(c3c4ccccc4cc4ccccc34)=NN2)nc1 (stereo not drawn) | 242 nM | 205 nM | 9.91 nM | 5.75 nM |
| O=[N+]([O-])c1cccc(C2CC(c3c4ccccc4cc4ccccc34)=NN2)c1 (stereo not drawn) | 43.9 nM | 32.2 nM | 0.45 nM | 0.31 nM |
| COc1ccc(C2CC(c3c4ccccc4cc4ccccc34)=NN2)cc1 (stereo not drawn) | 230 nM | 301 nM | – | – |
